From the NIST ThermoML archive (doi:10.1016/j.jct.2010.05.002)
± gives the expanded uncertainty stated by the source.

Assay: molar heat capacity at constant pressure
Settings: 101.33 kPa, Vacuum adiabatic calorimetry

CC(C)(C)c1ccc(-c2ccccc2)cc1 [4-(1,1-dimethylethyl)-1,1'-biphenyl]
Settings | molar heat capacity at constant pressure [J/K/mol]
268.57 K, Crystal | 275.22 ± 1.7
269.86 K, Crystal | 276.29 ± 1.7
271.15 K, Crystal | 277.98 ± 1.7
272.43 K, Crystal | 280.14 ± 1.7
273.71 K, Crystal | 281.15 ± 1.7
274.98 K, Crystal | 281.51 ± 1.7
276.26 K, Crystal | 282.58 ± 1.7
277.52 K, Crystal | 284.25 ± 1.8
278.79 K, Crystal | 285.49 ± 1.8
280.04 K, Crystal | 286.95 ± 1.8
281.3 K, Crystal | 288.13 ± 1.8
282.55 K, Crystal | 289.87 ± 1.8
283.8 K, Crystal | 290.87 ± 1.8
285.04 K, Crystal | 291.7 ± 1.8
286.08 K, Crystal | 293.13 ± 1.8
287.32 K, Crystal | 295.16 ± 1.8
288.53 K, Crystal | 295.47 ± 1.8
289.76 K, Crystal | 296.85 ± 1.8
292.2 K, Crystal | 299.34 ± 1.8
293.41 K, Crystal | 300.48 ± 1.9
294.63 K, Crystal | 301.51 ± 1.9
295.83 K, Crystal | 302.32 ± 1.9
297.03 K, Crystal | 303.76 ± 1.9
298.23 K, Crystal | 303.58 ± 1.9
299.42 K, Crystal | 305.47 ± 2
300.61 K, Crystal | 306.04 ± 1.9
301.79 K, Crystal | 308.28 ± 1.9
302.89 K, Crystal | 309.67 ± 1.9
303.99 K, Crystal | 310.47 ± 1.9
305.04 K, Crystal | 312.55 ± 1.9
306.34 K, Crystal | 313.92 ± 1.9
307.46 K, Crystal | 315.51 ± 1.9
308.62 K, Crystal | 315.74 ± 2
309.76 K, Crystal | 319.18 ± 2
310.9 K, Crystal | 320.42 ± 2
312.03 K, Crystal | 320.51 ± 2
313.15 K, Crystal | 321.63 ± 2
314.25 K, Crystal | 323.46 ± 2
315.35 K, Crystal | 326.54 ± 2
316.44 K, Crystal | 326.58 ± 2
317.52 K, Crystal | 328.97 ± 2.1
318.58 K, Crystal | 333.26 ± 2.2
325.87 K, Liquid | 381 ± 2.3
327.07 K, Liquid | 382.02 ± 2.3
328.07 K, Liquid | 382.22 ± 2.3
329.06 K, Liquid | 382.84 ± 2.3
330.05 K, Liquid | 383.2 ± 2.3
331.03 K, Liquid | 383.56 ± 2.3
332.01 K, Liquid | 384.21 ± 2.4
332.98 K, Liquid | 384.73 ± 2.4
333.94 K, Liquid | 386.4 ± 2.4
334.9 K, Liquid | 386.26 ± 2.4
335.85 K, Liquid | 387.48 ± 2.4
336.8 K, Liquid | 388 ± 2.4
337.74 K, Liquid | 388.46 ± 2.4
338.68 K, Liquid | 388.8 ± 2.4
339.61 K, Liquid | 389.81 ± 2.4
340.53 K, Liquid | 390.68 ± 2.4
340.99 K, Liquid | 390.97 ± 2.4
341.91 K, Liquid | 391.9 ± 2.4
342.82 K, Liquid | 392.95 ± 2.4
343.73 K, Liquid | 393.35 ± 2.4
344.62 K, Liquid | 393.96 ± 2.4
345.52 K, Liquid | 394.82 ± 2.4
346.4 K, Liquid | 396.04 ± 2.4
347.28 K, Liquid | 396.15 ± 2.4
348.16 K, Liquid | 397.03 ± 2.4
349.03 K, Liquid | 396.87 ± 2.4
349.89 K, Liquid | 397.86 ± 2.4
350.75 K, Liquid | 398.4 ± 2.4
351.6 K, Liquid | 397.8 ± 2.4
352.45 K, Liquid | 397.92 ± 2.6
354.12 K, Liquid | 401.27 ± 3.3
354.41 K, Liquid | 401.25 ± 2.5
355.24 K, Liquid | 400.85 ± 2.4
356.06 K, Liquid | 400.95 ± 2.4
356.87 K, Liquid | 401.61 ± 2.5
357.67 K, Liquid | 402.4 ± 2.5
358.47 K, Liquid | 402.62 ± 2.5
359.27 K, Liquid | 402.51 ± 2.5
360.06 K, Liquid | 402.5 ± 2.5
360.84 K, Liquid | 404.15 ± 2.5
361.61 K, Liquid | 405.1 ± 2.5
362.38 K, Liquid | 405.27 ± 2.5
363.15 K, Liquid | 406.09 ± 2.5
363.91 K, Liquid | 406.9 ± 2.5
364.66 K, Liquid | 406.47 ± 2.5
365.41 K, Liquid | 407.47 ± 2.5
366.15 K, Liquid | 407.61 ± 2.5
366.27 K, Liquid | 407.63 ± 2.5
367.01 K, Liquid | 406.87 ± 2.5
367.73 K, Liquid | 408.31 ± 2.5
368.45 K, Liquid | 410.51 ± 2.5
369.17 K, Liquid | 410.57 ± 2.5
369.88 K, Liquid | 409.74 ± 2.5
370.58 K, Liquid | 410.84 ± 2.5
